12 compounds from ChEMBL document CHEMBL6127025, “Discovery of a potent, selective, and orally available EGFR C797S mutant inhibitor (DS06652923) with in vivo antitumor activity” (Bioorg Med Chem, 2024) can be followed below.

Values after ≈ are worked out from the molar mass of the structure shown.

What is called GI50 is the concentration giving 50% growth inhibition. A low value points to greater sensitivity of the cells. In general, solubility refers to the dissolved amount per volume that the medium holds. Higher therefore signals a readily soluble substance. As a reminder, the Papp is a coefficient for how fast a substance crosses the barrier. What is called logD is lipophilicity at a set pH, counting ionised and neutral species. A low value points to lower lipophilicity.

The test system of data set [1] is BaF3. Description: Anti-proliferative activity against mouse BaF3 cells expressing wild-type EGFR incubated for 3 days by Cell Titer Glo 2.0 assay. The data set is classed as functional. The note with it: BaF3, 72 h, time 3 day. Background: Cellular ATP, detected with luciferase, serves as a proxy for viable cell number.
In data set [2] the test system is BaF3. Briefly: Anti-proliferative activity against mouse BaF3 cells expressing EGFR […]/T790M/C797S mutant incubated for 3 days by Cell Titer Glo 2.0 assay. The data set is classed as functional. The note with it: BaF3, 72 h, time 3 day.
A short description of data set [3]: Plasma protein binding in human. The data set is classed as ADME, cell-free. The note with it: read-out: PPB.
Data set [4] in a line: Solubility of compound at pH 1.2. It counts as physicochemical. The note with it: buffer.
Data set [5] in a line: Metabolic stability in human liver microsomes assessed as compound remaining. The data set is classed as ADME, Microsome. On the technique in general: Liver microsomes are vesicles of endoplasmic reticulum, rich in cytochrome P450 enzymes.
Data set [6] is described as follows: Metabolic stability in mouse liver microsomes assessed as compound remaining. It counts as ADME, Microsome.
The test system of data set [7] is BaF3. Description: Anti-proliferative activity against mouse BaF3 cells expressing EGFR L858R/T790M/C797S mutant incubated for 3 days by Cell Titer Glo 2.0 assay. It counts as functional. The note with it: BaF3, 72 h, time 3 day.
The nature of data set [8]: Apparent permeability in MDCK cells. It counts as ADME, cell-based, Canis lupus familiaris. The note with it: dog.
Data set [9] can be described thus: Lipophilicity, logD of compound. The data set is classed as physicochemical. The note with it: octanol/water.
Data set [10] in a line: Plasma protein binding in mouse. The data set is classed as ADME, cell-free. The note with it: read-out: PPB.
Data set [11] is described as follows: Solubility of compound at pH 6.8. The note with it: buffer. It counts as physicochemical.
Data set [12] in a line: In vivo inhibition of phosphorylation of EGFR […]/T790M/[…] mutant at Y1068 in mouse BaF3 cells allografted in Balb/c nude mouse at 12.5 to 100 mg/kg, po measured after 6 hrs by Western blot analysis relative to control. The data set is classed as functional. The note with it: dose 12.5-100 mg/kg. In general terms: Immunoblotting shows a protein as a band on a membrane.

Data set [13] has as its system BaF3. Description: Antitumor activity against mouse BaF3 cells expressing EGFR […]/T790M/[…] mutant allografted in Balb/c nude mouse at 100 mg/kg, po qd for 5 days consecutively relative to control. The note with it: BaF3, 120 h, time 5 day, read-out: TGI. The data set is classed as functional.
In data set [14] the test system is BaF3. Description: Antitumor activity against mouse BaF3 cells expressing EGFR […]/T790M/[…] mutant allografted in Balb/c nude mouse at 12.5 mg/kg, po bid for 5 days consecutively relative to control. The data set is classed as functional. The note with it: BaF3, 120 h, time 5 day, read-out: TGI.
A short description of data set [15]: Toxicity in Balb/c nude mouse allografted with mouse BaF3 cells expressing EGFR […]/T790M/[…] mutant assessed as signs of toxicity at 12.5 to 25 mg/kg, po bid for 5 days consecutively. The note with it: in vivo, 120 h, dose 12.5-25 mg/kg, time 5 day. The data set is classed as organism-based.
Data set [16] has as its system BaF3. Briefly: Antitumor activity against mouse BaF3 cells expressing EGFR […]/T790M/[…] mutant allografted in Balb/c nude mouse at 25 mg/kg, po bid for 5 days consecutively relative to control. The note with it: BaF3, 120 h, time 5 day, read-out: TGI. It counts as functional.
Data set [17] has as its system BaF3. Description: Antitumor activity against mouse BaF3 cells expressing EGFR […]/T790M/[…] mutant allografted in Balb/c nude mouse at 25 mg/kg, po qd for 5 days consecutively relative to control. The data set is classed as functional. The note with it: BaF3, 120 h, time 5 day, read-out: TGI.
Data set [18] is described as follows: Toxicity in Balb/c nude mouse allografted with mouse BaF3 cells expressing EGFR […]/T790M/[…] mutant assessed as body weight loss at 25 to 100 mg/kg, po qd for 5 days consecutively. It counts as organism-based. The note with it: in vivo, 120 h, dose 25-100 mg/kg, time 5 day.
Data set [19] concerns BaF3. Briefly: Antitumor activity against mouse BaF3 cells expressing EGFR […]/T790M/[…] mutant allografted in Balb/c nude mouse administered orally twice daily for 5 days consecutively. The data set is classed as functional, cell-based. The note with it: dose 12.5-25 mg/kg, route po, time 5.0 day.
Data set [20] can be described thus: Toxicity in Balb/c nude mouse allografted with mouse BaF3 cells expressing EGFR […]/T790M/[…] mutant assessed as body weight loss at 12.5 to 25 mg/kg, po bid for 5 days consecutively. It counts as organism-based. The note with it: in vivo, 120 h, dose 12.5-25 mg/kg, time 5 day.
A short description of data set [21]: Toxicity in Balb/c nude mouse allografted with mouse BaF3 cells expressing EGFR […]/T790M/[…] mutant assessed as signs of toxicity at 25 to 100 mg/kg, po qd for 5 days consecutively. The data set is classed as organism-based. The note with it: in vivo, 120 h, dose 25-100 mg/kg, time 5 day.
Data set [22] concerns BaF3. Description: Antitumor activity against mouse BaF3 cells expressing EGFR […]/T790M/[…] mutant allografted in Balb/c nude mouse administered orally once daily for 5 days consecutively. The data set is classed as functional, cell-based. The note with it: dose 25-100 mg/kg, route po, time 5.0 day.

`CC(C)Oc1cc(Nc2ccnc(-c3cnn(S(=O)(=O)C4CC4)c3)n2)ncc1-c1cnn([C@@H]2CCN(C)C2)c1`: the GI50 with BaF3 [1] is 318 nM; in the data set with BaF3 [2], 21 nM.

With `CC(C)Oc1cc(Nc2ccnc(-c3cnn(S(=O)(=O)C4CC4)c3)n2)ncc1-c1cnn(C2CCOCC2)c1`, the GI50 came to 353 nM with BaF3 [1] and 46 nM in the data set with BaF3 [2].

Turning to `CC(C)Oc1cc(Nc2ccnc(-c3cnn(S(=O)(=O)C4CC4)c3)n2)ncc1-c1cnn(-c2ccncc2)c1`, the 50% growth inhibitory concentration (GI50) with BaF3 [1] was above 10000 nM; with BaF3 [2] it was 601 nM.

Take `COc1nn(C2CCN(C)CC2)cc1-c1cnc(Nc2ccnc(-c3cnn(S(=O)(=O)C4CC4)c3)n2)cc1OC(C)C`: the fraction unbound in [3] and in [10] was below 0.002 each time. The figures for the solubility in data set [4] and in data set [11] were above 1100 µg/mL and 15 µg/mL (≈ 25.3 µM), respectively. For the same compound, the figures for the Stability in [5] and in [6] were 24% and 48%, respectively. Further, the GI50 was 18 nM in the data set with BaF3 [7], 565 nM with BaF3 [1] and 6.5 nM in the data set with BaF3 [2]. Further, the apparent permeability coefficient (Papp) in [8] came to 3.1 ×10⁻⁶ cm/s. Also, the pH-dependent lipophilicity (logD) in [9] turned out to be 4.4.

For the compound `CC(C)Oc1cc(Nc2ccnc(-c3cnn(S(=O)(=O)C4CC4)c3)n2)ncc1-c1cnn(C)c1`, the GI50 in the data set on BaF3 [1] came out at 879 nM; in the data set with BaF3 [2], 61 nM.

As for `CC(C)Oc1cc(Nc2ccnc(-c3cnn(S(=O)(=O)C4CC4)c3)n2)ncc1-c1cn([C@H]2C[C@H](C)N(C)C2)nc1F`, the GI50 is 856 nM in the data set on BaF3 [1] and 43 nM with BaF3 [2].

`Cc1nn([C@H]2C[C@H](C)N(C)C2)cc1-c1cnc(Nc2ccnc(-c3cnn(S(=O)(=O)C4CC4)c3)n2)cc1OC(C)C`: the GI50 stood at 2290 nM with BaF3 [1] and 168 nM with BaF3 [2].

`CC(C)Oc1cc(Nc2ccnc(-c3cnn(S(=O)(=O)C4CC4)c3)n2)ncc1-c1cnn([C@H]2CCN(C)C2)c1`: the GI50 is 463 nM in the data set with BaF3 [1] and 19 nM in the data set with BaF3 [2].

For `CC(C)Oc1cc(Nc2ccnc(-c3cnn(S(=O)(=O)C4CC4)c3)n2)ncc1-c1cnn([C@H]2C[C@H](C)N(C)C2)c1`, the figures for the GI50 with BaF3 [1] and in the data set on BaF3 [2] were 387 nM and 26 nM, respectively.

Regarding `CC(C)Oc1cc(Nc2ccnc(-c3cnn(S(=O)(=O)C4CC4)c3)n2)ncc1-c1cnn(C2CCN(C)CC2)c1`, the GI50 in the data set on BaF3 [1] is 203 nM; in the data set on BaF3 [2], 9.6 nM.

Consider `COc1nn([C@H]2C[C@H](C)N(C)C2)cc1-c1cnc(Nc2ccnc(-c3cnn(S(=O)(=O)C4CC4)c3)n2)cc1OC(C)C`, for which the fraction unbound in data set [3] and in data set [10] was below 0.002 throughout. In data set [4], the solubility was above 1100 µg/mL. Further, the Stability amounted to 1% in data set [5] and 20% in data set [6]. The concentration for 50% growth inhibition (GI50) in the data set with BaF3 [7] was determined as 23 nM; with BaF3 [1], 574 nM; in the data set on BaF3 [2] it was 12 nM. Besides, the Papp in [8] is 5.2 ×10⁻⁶ cm/s. The same compound came in with a logD in data set [9] of 5.4.

Take `CC(C)Oc1cc(Nc2ccnc(-c3cnn(S(=O)(=O)C4CC4)c3)n2)ncc1-c1cn(C2CCN(C)CC2)nc1OC(F)F`: the “inhibition (INH)” value in data set [12] stood at 100%. For the same compound, the fraction unbound in data set [3] and in [10] was below 0.002 each time. The compound further registered a solubility in [4] of 1200 µg/mL (≈ 1910 µM). Moreover, in the data set with BaF3 [13], the inhibition in vivo at 100 mg/kg amounted to 127%. Besides, the Stability in data set [5] was found to be 18%; in data set [6] it was 55%. In addition, the inhibition in vivo at 12.5 mg/kg in the data set with BaF3 [14] is 88%. The Activity entry in data set [15] is “Non-Toxic”; in data set [18], “Non-Toxic”; in the data set with BaF3 [19], “Dose-Dependent Effect”; in [20], “Non-Toxic”; in data set [21] it was “Non-Toxic”; in the data set on BaF3 [22], “Dose-Dependent Effect”. Besides, the inhibition in vivo at 25 mg/kg in the data set with BaF3 [16] turned out to be 119%; in the data set on BaF3 [17], 111%. Further, the 50% growth inhibitory concentration (GI50) in the data set with BaF3 [7] came out at 13 nM; with BaF3 [1], 760 nM; in the data set with BaF3 [2] it was 9.4 nM. In addition, the Papp in data set [8] was 9 ×10⁻⁶ cm/s. Further, in data set [9], the logD is 4.6.
